Values of other authors in patent publication US7842686B2, “CGRP receptor antagonists” (Vertex Pharmaceuticals Incorporated, priority 2006, dated 2010).
No end group written: not given here.

What was measured:
[1] = test system: facial blood flow; conditions: rat, trigeminal ganglion stimulation
[2] = test system: middle meningeal artery; conditions: rats, electrical stimulation of the dura mater, prior administration
[3] = test system: acute attacks of migraine; conditions: clinical trials (Olesen et al. 2004)
[4] = test system: facial blood flow; conditions: marmoset, electrical stimulation of the trigeminal ganglion

Compound | effect on increase of facial blood flow [1] | effect on increase of middle meningeal artery diameter [2] | efficacy in acute attacks of migraine [3] | effect on increase in facial blood flow [4]
CGRP(8-37): a peptide CGRP antagonist (VTHRLAGLLSRSGGVVKNNFVPTNVGSKAF-NH2; ends and bridges not checked; UniProt P06881 90-119, looked up, fragment) | inhibited | blocked | – | –
NCCCC[C@H](NC(=O)[C@@H](Cc1cc(Br)c(O)c(Br)c1)NC(=O)N1CCC(N2Cc3ccccc3NC2=O)CC1)C(=O)N1CCN(c2ccncc2)CC1 [BIBN4096BS] | – | – | effective in treating acute attacks of migraine | could be blocked
